Reference: patent publication US12384792B2, “Solid forms of isoquinolinones, and process of making, composition comprising, and methods of using the same” (Twelve Therapeutics, Inc., priority 2015, dated 2025)
Values after ≈ are worked out from the molar mass of the structure shown. Read-outs that look alike come from different tables or passages of the source.

Assays:
[1] = test system: PI3 kinase (e.g., PI3K-delta); conditions: in vitro; cited from earlier work
[2] = test system: PI3 kinase (e.g., PI3K-delta); conditions: smoking mice in vivo; cited from earlier work
[3] = Gravimetric vapour sorption (GVS); type: physicochemical
Method: Gravimetric Vapour Sorption (GVS)
Sorption isotherms were obtained using a SMS DVS Intrinsic moisture sorption analyser, controlled by DVS Intrinsic Control software v1.0.1.2 (or v 1.0.1.3). The sample temperature was maintained at 25° C. by the instrument controls. The humidity was controlled by mixing streams of dry and wet nitrogen, with a total flow rate of 200 ml/min The relative humidity was measured by a calibrated Rotronic probe (dynamic range of 1.0-100% RH), located near the sample. The weight change, (mass relaxation) of the sample as a function of % RH was constantly monitored by the microbalance (accuracy ±0.005 mg). Typically 5-20 mg of sample was placed in a tared mesh stainless steel basket under ambient conditions. The sample was loaded and unloaded at 40% RH and 25° C. (typical room conditions). A moisture sorption isotherm was performed as outlined below (2 scans giving 1 complete cycle). The standard isotherm was performed at 25° C. at 10% RH intervals over a 0-90% RH range. Data analysis was carried out using Microsoft Excel using DVS Analysis Suite v6.2 (or 6.1 or 6.0).

[4] = Static stability on storage at controlled temperature/RH (XRPD, purity); type: physicochemical
Source text: (§1) See tables below for the summarized results.

[5] = Gravimetric vapour sorption (GVS) isotherm, hygroscopicity; type: physicochemical; conditions: for weight increase (GVS): increase in relative humidity from about 0 to about 90% relative humidity
[6] = Kinetic solubility after 30 min in water and in 0.1M HCl; type: physicochemical; conditions: for solubility kinetic at 30 min: thermodynamic from solid
Source text: as §1

[7] = Solubility of Compound 1 in acetonitrile/water during controlled crystallization; type: physicochemical
Method: An appropriate amount of acetonitrile/water were added to bring the solution to 80/20 v/v acetonitrile/water at 20 L/kg of Compound 1. The slurry was agitated and heated to 75° C. until all the Compound 1 was dissolved. The clear solution was polished filtered with a Zapcap filter (0.45 μm). The solution was put back into the reactor and cool down to 65° C.
The mixture was held under agitation at 22° C. for 2 hrs after the end of water addition.
20 L/kg of 80/20 v/v acetonitrile/water was added to Compound 1 solid charged into a reactor. The slurry was agitated and heated to 75° C. until all Compound 1 was dissolved. The clear solution was polish filtered with a Zapcap filter (0.45 μm). The solution was put back into the reactor and cooled down to 65° C.

[8] = test system: non-small-cell lung cancer, melanoma, and renal-cell cancer; conditions: clinical trial with a total of 296 patients; cited from earlier work
[9] = Competitive slurry/water activity experiments with Forms 1 and 6; type: physicochemical
Source text: IPA/water and ACN/water were selected as suitable solvents for the competitive slurry/water activity experiments. These solvent mixtures were selected to have some solubility of the Compound 1 free base and to be able to obtain a wide range of water activities by varying the water content. IPA/water was selected as this solvent often formed solvated forms of the free base and ACN/water was selected as this solvent produced only Form 1 of the free base during the polymorph screening experiments.
There was one exception to this—the IPA/water sample at 50° C. and at a water activity of 0.8 gave Form 1 rather than Form 4.

[10] = Static storage stability of solid forms (40° C./75% RH, 25° C./96% RH), form checked by XRPD; type: physicochemical; conditions: for Static Stability 40° C./75% RH: dried screening sample, solid form after 7 and 36 days at 40° C./75% RH
post-irradiated tumors = conditions: cited from earlier work
[11] = 7 d storage at 40° C./75% RH and at 25° C./97% RH, result stated for both conditions

Cn1c(=O)c2[nH]cnc2n(C)c1=O [Theophylline, theophylline]
histone deacetylase-2 and corticosteroid sensitivity [1]: increases
histone deacetylase-2 and corticosteroid sensitivity [2]: increases

C[C@H](NC(=O)c1c(N)nn2cccnc12)c1cc2cccc(C#Cc3cnn(C)c3)c2c(=O)n1-c1ccccc1 [Form P1C3]
GVS hysteresis [3]: No hysteresis
GVS weight gain from 0-90% RH ([3]; 0-90% RH): 3.67%
Hygroscopicity by GVS ([3]; 0-90% RH): moderately hygroscopic
GVS weight gain ([3]; from 0-90% RH, cycle 2): 3.67%
HPLC purity change after 7 d 40° C. 75% RH 25° C. 97% RH [4, 11]: < 3% for both.
XRPD after 7 d 40° C. 75% RH 25° C. 97% RH [4, 11]: no change
XRPD after 7 d at 25° C. 97% RH ([4]; after 7 d): no changes
Static stability at 40° C./75% RH, XRPD ([4]; after 7 days): no changes
Stability at 25° C./96% RH, purity and XRPD ([4]; after a week): no significant change
Stability at 40° C./75% RH, purity and XRPD ([4]; after a week): no significant change
weight increase (GVS) [5]: about 3.7%
solubility kinetic at 30 min ([6]; 0.1M HCl, pH 1.3, simulated gastric fluid, cocrystal, in 0.1M HCl, in duplicate, pH 1.3, read-out: 30 min Kinetic solubility (pH)): 20 µg/mL (≈ 37.8 µM)
Kinetic solubility in 0.1M HCl compared with the free base ([6]; after 30 min, 0.1M HCl): very similar to the free base solubility
Kinetic solubility in water compared with the free base ([6]; after 30 min, water): slightly higher solubility values
Kinetic solubility with respect to the free base ([6]; summary statement): slight improve in solubility
solubility kinetic at 30 min ([6]; water, pH 2.9, water, cocrystal, in water, in duplicate, pH 2.9, 3.0, read-out: 30 min Kinetic solubility (pH)): 40 µg/mL (≈ 75.7 µM)

C[C@H](NC(=O)c1c(N)nn2cccnc12)c1cc2cccc(C#Cc3cnn(C)c3)c2c(=O)n1-c1ccccc1 [Compound 1, (S)-2-amino-N-(1-(8-((1-methyl-1H-pyrazol-4-yl)ethynyl)-1-oxo-2-phenyl-1,2-dihydroisoquinolin-3-yl)ethyl)pyrazolo[1,5-a]pyrimidine-3-carboxamide]
solubility ([7]; aqueous with cosolvent or surfactant or cyclodextrin, 40/60 v/v acetonitrile/water, 22° C.): ~3000 µg/mL (≈ 5680 µM)
solubility ([7]; organic solvent or mixture, 80/20 v/v acetonitrile/water, 22° C.): ~18000 µg/mL (≈ 34100 µM)
solubility ([7]; organic solvent or mixture, 80/20 v/v acetonitrile/water, 65° C.): ~50000 µg/mL (≈ 94600 µM)
solubility kinetic at 30 min ([6]; 0.1M HCl, pH 1.5, simulated gastric fluid, free base, in 0.1M HCl, pH 1.5 and 1.3, read-out: 30 min Kinetic solubility (pH), free base): 10 µg/mL (≈ 18.9 µM)
solubility kinetic at 30 min ([6]; water, pH 7.1, water, free base, in water (footnote *), pH 7.1 and 6.8, read-out: 30 min Kinetic solubility (pH), free base): 10 µg/mL (≈ 18.9 µM)

nivolumab: fully human IgG4 monoclonal antibody which specifically blocks PD1
response in non-small-cell lung cancer, melanoma, and renal-cell cancer [8]: complete or partial responses

C[C@H](NC(=O)c1c(N)nn2cccnc12)c1cc2cccc(C#Cc3cnn(C)c3)c2c(=O)n1-c1ccccc1 [Form 6, (S)-2-amino-N-(1-(8-((1-methyl-1H-pyrazol-4-yl)ethynyl)-1-oxo-2-phenyl-1,2-dihydroisoquinolin-3-yl)ethyl)pyrazolo[1,5-a]pyrimidine-3-carboxamide]
Hygroscopicity by GVS ([3]; 0-90% RH): hygroscopic. Large steps 40-60%
GVS total weight change 0-90% RH ([3]; 25° C., 0-90% RH): 15.0 wt %
Static stability at 40° C./75% RH, XRPD ([4]; after 7 days): subtle changes in XRPD after
Static stability at 25° C./96% RH, XRPD ([4]; after 26 days): no change in XRPD after 26
Static stability at 40° C./75% RH, XRPD ([4]; after 26 days): no further changes after 26
weight increase (GVS) [5]: about 14%
Relative stability of forms in ACN/water slurry ([9]; 5° C., ACN/water, water activity 0.8 (15 vol % water)): more stable than Form 1

C[C@H](NC(=O)c1c(N)nn2cccnc12)c1cc2cccc(C#Cc3cnn(C)c3)c2c(=O)n1-c1ccccc1 [Form 1, (S)-2-amino-N-(1-(8-((1-methyl-1H-pyrazol-4-yl)ethynyl)-1-oxo-2-phenyl-1,2-dihydroisoquinolin-3-yl)ethyl)pyrazolo[1,5-a]pyrimidine-3-carboxamide]
stability after storage ([10]; 25° C./96% RH for more than 9 months): stable
stability after storage ([10]; 40° C./75% RH for more than 9 months): stable
Static Stability 40° C./75% RH [10]: no change after 7
hygroscopicity [5]: non-hygroscopic
weight increase (GVS) [5]: about 0.5%
Relative stability of forms in ACN/water slurries ([9]; all ACN/water experiments except 50° C. and 5° C. at water activity 0.8): most stable form
Relative stability of forms in IPA/water slurries ([9]; all temperatures (5, 25, 50° C.) and water activities (0.2-0.8), slurried 4 days): more stable than Form 6

C[C@H](NC(=O)c1c(N)nn2cccnc12)c1cc2cccc(C#Cc3cnn(C)c3)c2c(=O)n1-c1ccccc1 [Form 2, (S)-2-amino-N-(1-(8-((1-methyl-1H-pyrazol-4-yl)ethynyl)-1-oxo-2-phenyl-1,2-dihydroisoquinolin-3-yl)ethyl)pyrazolo[1,5-a]pyrimidine-3-carboxamide]
Static Stability 40° C./75% RH [10]: amorphous after 7
hygroscopicity [5]: non-hygroscopic
weight increase (GVS) [5]: about 1.3%

c1cc(CN2CCCNCCNCCCNCC2)ccc1CN1CCCNCCNCCCNCC1 [AMD3100]
tumor vasculogenesis and tumor regrowth (post-irradiated tumors): blocked
